# Measured values as given in the NIST ThermoML archive (doi:10.1021/je500792x).
# ± gives the expanded uncertainty stated by the source.
# Assay: xn = mol fraction of the nth substance listed
# Settings: Gas, Buoyancy - hydrostatic balance with magnetic suspension - two sinkers
structure (smiles),measurement,setting,value
C [methane] + CCC,mass density,"323.17 K, 814.12 kPa, x1 = 0.5069",9.4697 ± 0.0061 kg/m3
same,mass density,"323.17 K, 861.14 kPa, x1 = 0.2658",12.694 ± 0.005 kg/m3
same,mass density,"323.17 K, 956.3 kPa, x1 = 0.2658",14.2336 ± 0.0056 kg/m3
same,mass density,"323.17 K, 1057.6 kPa, x1 = 0.2658",15.9088 ± 0.0059 kg/m3
same,mass density,"323.17 K, 1155.4 kPa, x1 = 0.2658",17.5614 ± 0.007 kg/m3
same,mass density,"373.14 K, 736.34 kPa, x1 = 0.5069",7.2655 ± 0.005 kg/m3
same,mass density,"373.14 K, 1298.1 kPa, x1 = 0.5069",13.0615 ± 0.0077 kg/m3
same,mass density,"373.14 K, 1387.2 kPa, x1 = 0.5069",14.0021 ± 0.0084 kg/m3
same,mass density,"373.14 K, 1906.7 kPa, x1 = 0.5069",19.6043 ± 0.012 kg/m3
same,mass density,"373.15 K, 286.24 kPa, x1 = 0.5069",2.7813 ± 0.0033 kg/m3
same,mass density,"373.15 K, 293.98 kPa, x1 = 0.7498",2.1956 ± 0.0029 kg/m3
same,mass density,"373.15 K, 494.25 kPa, x1 = 0.7498",3.7047 ± 0.0033 kg/m3
same,mass density,"373.15 K, 559.53 kPa, x1 = 0.5069",5.4874 ± 0.0042 kg/m3
same,mass density,"373.15 K, 587.98 kPa, x1 = 0.5069",5.7723 ± 0.0043 kg/m3
same,mass density,"373.15 K, 732.21 kPa, x1 = 0.7498",5.5128 ± 0.0037 kg/m3
same,mass density,"373.15 K, 776.15 kPa, x1 = 0.5069",7.6695 ± 0.005 kg/m3
same,mass density,"373.15 K, 942.67 kPa, x1 = 0.5069",9.3682 ± 0.0061 kg/m3
same,mass density,"373.15 K, 969.14 kPa, x1 = 0.5069",9.6405 ± 0.0061 kg/m3
same,mass density,"373.15 K, 973.87 kPa, x1 = 0.7498",7.3646 ± 0.0042 kg/m3
same,mass density,"373.15 K, 1118.7 kPa, x1 = 0.5069",11.1859 ± 0.0072 kg/m3
same,mass density,"373.15 K, 1177.4 kPa, x1 = 0.5069",11.7969 ± 0.0073 kg/m3
same,mass density,"373.15 K, 1222.4 kPa, x1 = 0.7498",9.2859 ± 0.0047 kg/m3
same,mass density,"373.15 K, 1491.1 kPa, x1 = 0.7498",11.3819 ± 0.0055 kg/m3
same,mass density,"373.15 K, 1497 kPa, x1 = 0.5069",15.1688 ± 0.0086 kg/m3
same,mass density,"373.15 K, 1581.5 kPa, x1 = 0.5069",16.0735 ± 0.0087 kg/m3
same,mass density,"373.15 K, 1707.3 kPa, x1 = 0.5069",17.4293 ± 0.0087 kg/m3
same,mass density,"373.15 K, 1745.3 kPa, x1 = 0.5069",17.8434 ± 0.016 kg/m3
same,mass density,"373.15 K, 1990.9 kPa, x1 = 0.7498",15.3338 ± 0.0069 kg/m3
same,mass density,"373.15 K, 1998.3 kPa, x1 = 0.7498",15.3921 ± 0.0069 kg/m3
same,mass density,"373.15 K, 1999.3 kPa, x1 = 0.5069",20.6289 ± 0.012 kg/m3
same,mass density,"373.15 K, 3998.4 kPa, x1 = 0.7498",31.915 ± 0.0087 kg/m3
same,mass density,"373.15 K, 4503 kPa, x1 = 0.7498",36.2589 ± 0.0093 kg/m3
same,mass density,"373.15 K, 5859.6 kPa, x1 = 0.7498",48.2829 ± 0.0089 kg/m3
same,mass density,"373.16 K, 150.36 kPa, x1 = 0.2658",1.7881 ± 0.003 kg/m3
same,mass density,"373.16 K, 249.5 kPa, x1 = 0.2658",2.984 ± 0.0032 kg/m3
same,mass density,"373.16 K, 442.47 kPa, x1 = 0.2658",5.3479 ± 0.0036 kg/m3
same,mass density,"373.16 K, 487.18 kPa, x1 = 0.7498",3.6521 ± 0.0033 kg/m3
same,mass density,"373.16 K, 564.91 kPa, x1 = 0.2658",6.8735 ± 0.0038 kg/m3
same,mass density,"373.16 K, 592.63 kPa, x1 = 0.2658",7.2228 ± 0.0039 kg/m3
same,mass density,"373.16 K, 676.04 kPa, x1 = 0.2658",8.2772 ± 0.0041 kg/m3
same,mass density,"373.16 K, 733.18 kPa, x1 = 0.2658",9.007 ± 0.0042 kg/m3
same,mass density,"373.16 K, 866.5 kPa, x1 = 0.2658",10.7249 ± 0.0047 kg/m3
same,mass density,"373.16 K, 883.43 kPa, x1 = 0.2658",10.9464 ± 0.0047 kg/m3
same,mass density,"373.16 K, 963.18 kPa, x1 = 0.2658",11.9881 ± 0.0049 kg/m3
same,mass density,"373.16 K, 991.05 kPa, x1 = 0.7498",7.4967 ± 0.0042 kg/m3
same,mass density,"373.16 K, 1034.3 kPa, x1 = 0.2658",12.9279 ± 0.005 kg/m3
same,mass density,"373.16 K, 1057.2 kPa, x1 = 0.2658",13.2303 ± 0.0052 kg/m3
same,mass density,"373.16 K, 1156.4 kPa, x1 = 0.2658",14.557 ± 0.0055 kg/m3
same,mass density,"373.16 K, 1174.7 kPa, x1 = 0.2658",14.8058 ± 0.0055 kg/m3
same,mass density,"373.16 K, 1293.1 kPa, x1 = 0.2658",16.4139 ± 0.0059 kg/m3
same,mass density,"373.16 K, 1468.2 kPa, x1 = 0.7498",11.1998 ± 0.0055 kg/m3
same,mass density,"373.16 K, 1985.8 kPa, x1 = 0.7498",15.2929 ± 0.0069 kg/m3
same,mass density,"373.16 K, 2987.4 kPa, x1 = 0.7498",23.4236 ± 0.0075 kg/m3
same,mass density,"373.16 K, 2996.6 kPa, x1 = 0.7498",23.4974 ± 0.0075 kg/m3
same,mass density,"373.16 K, 3945 kPa, x1 = 0.7498",31.4611 ± 0.0086 kg/m3
same,mass density,"373.16 K, 4881.1 kPa, x1 = 0.7498",39.5669 ± 0.01 kg/m3
same,mass density,"373.16 K, 6041.3 kPa, x1 = 0.7498",49.9291 ± 0.0091 kg/m3
same,mass density,"373.17 K, 281.96 kPa, x1 = 0.2658",3.3776 ± 0.0032 kg/m3
same,mass density,"373.17 K, 361.95 kPa, x1 = 0.2658",4.3551 ± 0.0033 kg/m3
same,mass density,"373.17 K, 469.53 kPa, x1 = 0.2658",5.683 ± 0.0036 kg/m3
